Legend:
Type in all cases: cell-based
[1] = test system: T47D (PI3Kα H1047R mutant) cells; test: Inhibition of pAKT formation, alphaLISA SureFire Ultra AKT 1/2/3 (pS473), T47D cells; details: Homo sapiens, T47D
Method in brief: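 AKT Ser473 phosphorylation was quantified by alphaLISA SureFire Ultra after roughly 1 h or 24 h compound exposure at 37 °C. Cells were T47D (12,000/well in HBSS), treated with a 10-point 1:4 series starting at 10.4 μM. Percent of control used alpelisib background and DMSO reference, and IC50 came from four-parameter logistic fitting.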

[2] = test system: SKBR3 (PI3Kα wild type) cells; test: CellTiter-Glo 2.0 luminescent cell viability assay, 72 hours, SKBR3 cells; details: Homo sapiens, SK-BR-3, 72 h
Method in brief: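 Viability measured via CTG luminescence following roughly 72 hours of compound exposure at 37° C. Dosing used a 10 um starting concentration diluted 1:4 over 10 points; percent-of-vehicle data fitted with a variable-slope four-parameter model for IC50.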

[3] = test system: SKBR3 (PI3Kα wild type) cells; test: Inhibition of pAKT formation, alphaLISA SureFire Ultra AKT 1/2/3 (pS473), SKBR3 cells; details: Homo sapiens, SK-BR-3; Inhibition of pAKT in SKBR3 (PI3Kα wild type) cells; read-out: SKBR3 (WT) pAKT IC50 (nM) (H1047R mutant) IC50
Method: The ability of a compound of Formula (I) to inhibit the formation of pAKT was measured using alphaLISA Surefire Ultra AKT 1/2/3 (pS473) Assay Kit (#ALSU-PAKT-B50K) was obtained from Perkin Elmer (Waltham, MA).
To prepare assay plates for pAKT alphaLISA assays, cells were trypsinized, resuspended in fresh media, and viable cells were counted utilizing trypan blue exclusion. Prior to seeding, cells were washed with PBS and resuspended in HBSS (Gibco, #14025092). T47D (12,000/w), SKBR3(12,000/w), or MKN1(24,000/w) cells were seeded at 12 μl per well in a solid white flat bottom 384 cell culture plate (Perkin Elmer #6007680).
Immediately after seeding, cells were dosed using an Echo Liquid Handler (Beckman Coulter) with compounds at a […] starting concentration and serially diluted (1:4) for a total of 10 concentrations. […] Cells were incubated with the compounds (solubilized in DMSO) for approximately one hour or 24 hours at 37° C. After one hour (or 24 hours) of treatment, cells were lysed with 3 μl of the 5× lysis buffer (provided and incubated at room temperature for 15 min on a microtiter plate shaker). Once cells were sufficiently lysed, 7.5 μl of the acceptor bead mix (made using the manufacturers recommended dilutions) was added to each well and left on the microtiter plate shaker for 1 min prior to incubating plates at room temperature for one hour, in the absence of light. After one hour of incubation with the acceptor bead mix, 7.5 μl of the donor bead mix (made using the manufacturers recommended dilutions) was added to each well and left on the microtiter plate shaker for 1 min prior to incubating plates at room temperature overnight in the absence of light. Plates were then imaged the following day using a CLARIOstar microplate reader (BMG Labtech, Germany).
Percent of control values were calculated by subtracting the average signal from the positive control (alpelisib) treated wells from all treated wells (including DMSO control wells) and then divided by the average signal from the vehicle DMSO treated control wells. Percent of vehicle control values were plotted as log (inhibitor) vs. response-Variable slope (four parameters) for curve fitting and IC50 values were determined using XLfit.
Key: N.D. =not determined

[4] = test system: T47D (PI3Kα H1047R mutant) cells; test: CellTiter-Glo 2.0 luminescent cell viability assay, 72 hours, T47D cells
Method in brief: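 Viability was measured by CellTiter-Glo 2.0 luminescence after approximately 72 h of compound exposure at 37° C. Plating was 1000 cells per well the day before dosing, with ten 1:4 dilutions from a 10 µM top concentration. Values as percent of vehicle were fitted by variable-slope log(inhibitor) regression to give IC50.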

[5] = T47D (PI3Kα H1047R mutant) cells, inhibition of pAKT (pS473) formation, approximately one hour or 24 hours treatment, read-out: T47D pAKT (H1047R mutant) IC50
[6] = SKBR3 (PI3Kα wild type) cells, CellTiter-Glo, approximately 72 hours, read-out: SKBR3 (WT) Viability IC50
[7] = Homo sapiens, T47D, 72 h, T47D (PI3Kα H1047R mutant) cells, CellTiter-Glo, approximately 72 hours, read-out: T47D (H1047R mutant) Viability IC50

Row | Structure (SMILES) | IC50 [1, 5] [nM] | IC50 [2, 6] [nM] | IC50 [3] [nM] | IC50 [4, 7] [nM] | IC50 ([1]; read-out: T47D pAKT (H1047R mutant) IC50 (nM)) [nM] | IC50 ([2]; read-out: SKBR3 (WT) Viability IC50 (nM)) [nM] | IC50 ([4]; Homo sapiens, T47D, 72 h, read-out: T47D (H1047R mutant) Viability IC50 (nM)) [nM] | IC50 ([4]; T47D (PI3Kα H1047R mutant) cells, CellTiter-Glo, approximately 72 hours, read-out: T47D (H1047R mutant) Viability IC50) [nM]
1 | Cc1ccc(-c2cc(=O)n3cc(C)cc(C(C)Nc4ccccc4C(=O)O)c3n2)cc1 (stereo not shown) [7-2, 2-((1-(7-methyl-4-oxo-2-(p-tolyl)-4H-pyrido[1,2-a]pyrimidin-9-yl)ethyl)amino)benzoic acid] | > 100000 | > 10000 | > 10000 | > 10000 |  |  |  | 
2 | Cc1cc(C(C)Nc2ccccc2C(=O)O)c2nc(N3CCCCC3)cc(=O)n2c1 (stereo not shown) [Example 2, 2-((1-(7-methyl-4-oxo-2-(piperidin-1-yl)-4H-pyrido[1,2-a]pyrimidin-9-yl)ethyl)amino) benzoic acid] |  |  | > 10000 |  | 14 | > 10000 | 2970 | 
3 | Cc1cc([C@@H](C)Nc2ccccc2C(=O)O)c2nc(N3CCC(F)(F)CC3)c(C#N)c(=O)n2c1 [Example 10-23, (R)-2-((1-(3-cyano-2-(4,4-difluoropiperidin-1-yl)-7-methyl-4-oxo-4H-pyrido[1,2-a]pyrimidin-9-yl)ethyl)amino)benzoic acid] | 1.35 | 8970 | 1200 | 48.3 |  |  |  | 
4 | Cc1cc([C@@H](C)Nc2ccccc2C(=O)O)c2nc(N3CC(F)(F)C3)c(C#N)c(=O)n2c1 [Example 10-27, (R)-2-((1-(3-cyano-2-(3,3-difluoroazetidin-1-yl)-7-methyl-4-oxo-4H-pyrido[1,2-a]pyrimidin-9-yl)ethyl)amino)benzoic acid] | 2.1 | > 10000 | 780 | 52 |  |  |  | 
5 | Cc1cc([C@@H](C)Nc2cscc2C(=O)O)c2nc(N3CCC(F)(F)CC3)c(C#N)c(=O)n2c1 [Example 10-61, (R)-4-((1-(3-cyano-2-(4,4-difluoropiperidin-1-yl)-7-methyl-4-oxo-4H-pyrido[1,2-a]pyrimidin-9-yl)ethyl)amino)thiophene-3-carboxylic acid] | 7.7 | > 10000 | 3650 | 183 |  |  |  | 
6 | Cc1cc([C@@H](C)Nc2cccc(F)c2C(=O)O)c2nc(N3CCC(F)(F)CC3)c(C#N)c(=O)n2c1 [Example 10-62, (R)-2-((1-(3-cyano-2-(4,4-difluoropiperidin-1-yl)-7-methyl-4-oxo-4H-pyrido[1,2-a]pyrimidin-9-yl)ethyl)amino)-6-fluorobenzoic acid] | 4.84 | > 10000 | 8650 | 566 |  |  |  | 
7 | Cc1cc([C@@H](C)Nc2nccnc2C(=O)O)c2nc(N3CCC(F)(F)CC3)c(C#N)c(=O)n2c1 [Example 10-63, (R)-3-((1-(3-cyano-2-(4,4-difluoropiperidin-1-yl)-7-methyl-4-oxo-4H-pyrido[1,2-a]pyrimidin-9-yl)ethyl)amino)pyrazine-2-carboxylic acid] | 144 | > 10000 | > 10000 | 3720 |  |  |  | 
8 | Cc1cc([C@@H](C)Nc2ccc(Cl)cc2C(=O)O)c2nc(N3CCC(F)(F)CC3)c(C#N)c(=O)n2c1 [Example 10-64, (R)-5-chloro-2-((1-(3-cyano-2-(4,4-difluoropiperidin-1-yl)-7-methyl-4-oxo-4H-pyrido[1,2-a]pyrimidin-9-yl)ethyl)amino)benzoic acid] | 16.1 | > 10000 | 847 | 628 |  |  |  | 
9 | Cc1cc([C@@H](C)Nc2ccccc2C(=O)O)c2nc(C3CCC(F)(F)CC3)c(C#N)c(=O)n2c1 [Example 10-65, (R)-2-((1-(3-cyano-2-(4,4-difluorocyclohexyl)-7-methyl-4-oxo-4H-pyrido[1,2-a]pyrimidin-9-yl)ethyl)amino)benzoic acid] | 3.25 | > 10000 | 681 | 246 |  |  |  | 
10 | Cc1cc([C@@H](C)Nc2ccccc2C(=O)O)c2nc(N3CC4(C3)CC(F)(F)C4)c(C#N)c(=O)n2c1 [Example 10-66, (R)-2-((1-(3-cyano-2-(6,6-difluoro-2-azaspiro[3.3]heptan-2-yl)-7-methyl-4-oxo-4H-pyrido[1,2-a]pyrimidin-9-yl)ethyl)amino)benzoic acid] | 1370 | > 10000 | > 10000 | > 10000 |  |  |  | 
11 | Cc1cc([C@@H](C)Nc2ccc(Cl)nc2C(=O)O)c2nc(N3CCC(F)(F)CC3)c(C#N)c(=O)n2c1 [Example 10-67, (R)-6-chloro-3-((1-(3-cyano-2-(4,4-difluoropiperidin-1-yl)-7-methyl-4-oxo-4H-pyrido[1,2-a]pyrimidin-9-yl)ethyl)amino)picolinic acid] | 14.1 | > 10000 | > 10000 | 304 |  |  |  | 
12 | Cc1cc([C@@H](C)Nc2ccccc2C(=O)O)c2nc(N3CCS(=O)(=O)CC3)c(C#N)c(=O)n2c1 [Example 10-68, (R)-2-((1-(3-cyano-2-(1,1-dioxidothiomorpholino)-7-methyl-4-oxo-4H-pyrido[1,2-a]pyrimidin-9-yl)ethyl)amino)benzoic acid] | 375 | > 10000 | > 10000 | > 10000 |  |  |  | 
13 | Cc1cc([C@@H](C)Nc2ccccc2C(=O)O)c2nc(N3CC4CC(C3)C4(F)F)c(C#N)c(=O)n2c1 [Example 10-69, 2-(((1R)-1-(3-cyano-2-(6,6-difluoro-3-azabicyclo[3.1.1]heptan-3-yl)-7-methyl-4-oxo-4H-pyrido[1,2-a]pyrimidin-9-yl)ethyl)amino)benzoic acid] | 3.69 | > 10000 | 1800 | 165 |  |  |  | 
14 | Cc1cc([C@@H](C)Nc2ccccc2C(=O)O)c2nc(N3CCC(F)(F)[C@@H](C)C3)c(C)c(=O)n2c1 [Example 10-127, 2-(((R)-1-(2-((S)-4,4-difluoro-3-methylpiperidin-1-yl)-3,7-dimethyl-4-oxo-4H-pyrido[1,2-a]pyrimidin-9-yl)ethyl)amino)benzoic acid] | 1.19 | > 10000 |  | 74.4 |  |  |  | 
15 | Cc1cc([C@@H](C)Nc2ccccc2C(=O)O)c2nc(N3CCN(c4cccnc4C#N)CC3)c(C)c(=O)n2c1 [Example 10-131, (R)-2-((1-(2-(4-(2-cyanopyridin-3-yl)piperazin-1-yl)-3,7-dimethyl-4-oxo-4H-pyrido[1,2-a]pyrimidin-9-yl)ethyl)amino)benzoic acid] | 1.86 | > 10000 |  | 48.8 |  |  |  | 
16 | Cc1cc([C@@H](C)Nc2ccccc2C(=O)O)c2nc(N3Cc4cc(F)c(F)cc4C3)c(C)c(=O)n2c1 [Example 10-140, (R)-2-((1-(2-(5,6-difluoroisoindolin-2-yl)-3,7-dimethyl-4-oxo-4H-pyrido[1,2-a]pyrimidin-9-yl)ethyl)amino)benzoic acid] | 572 | > 10000 |  |  |  |  |  | 75.8
17 | Cc1cc([C@@H](C)Nc2ccccc2C(=O)O)c2nc(N3CC4CC3C(F)(F)C4)c(C)c(=O)n2c1 (stereo partly drawn) [Example 10-141, 2-(((1R)-1-(2-(6,6-difluoro-2-azabicyclo[2.2.1]heptan-2-yl)-3,7-dimethyl-4-oxo-4H-pyrido[1,2-a]pyrimidin-9-yl)ethyl)amino)benzoic acid] | 4.1 | > 10000 |  | 163 |  |  |  | 

— patent US20260078120A1, “SUBSTITUTED PYRIDOPYRIMIDINONES” (MIRATI THERAPEUTICS, INC., priority 2022, published 2026)
